The data set can be described thus: Retention time of the compound treated with FU'U ODN by HPLC analysis. The format is physicochemical.

In turn, `O=c1[nH]c(=O)n([C@H]2C[C@H](O)[C@@H](CO)O2)cc1F` [FLOXURIDINE] yielded a Retention_time of 19 min.
